Laboratory results: PMC5035790 (Annals of Oncology, 2016)
pIC50: −log10 of the molar value. Marks after values point to notes of the source that are not given here.

How the values were obtained:
p110α = conditions: read-out: IC50 p110α; cited from earlier work
[1] = Plasma pharmacokinetics of copanlisib; assay type: in vivo, human
[2] = cycle 1 day 1, NHL expansion, 0.8 mg/kg, n=9, value (range)
[3] = cycle 1 day 1, diabetic expansion, 0.4 mg/kg, n=6, value (range)
[4] = cycle 1 day 1, solid tumors expansion, 0.8 mg/kg, n=25, value (range)

COc1c(OCCCN2CCOCC2)ccc2c1N=C(NC(=O)c1cnc(N)nc1)N1CCN=C21 [copanlisib, Copanlisib]
pIC50 (p110α): 9.30
coefficients of variation of Cmax and AUC(0–25) ([1]; 0.1 to 1.2 mg/kg): 30–50%
inter-patient variability of AUC ([1]; MTD 0.8 mg/kg): 47%
terminal half-life ([1]; MTD 0.8 mg/kg, coefficient of variation 43%): ~38 h
Cmax levels of unbound copanlisib ([1]; at the MTD): ~150 nM
dose dependence of Cmax and AUC(0–25) ([1]; between 0.1 and 1.2 mg/kg): dose-proportionally
tlast ([1]; cycle 1 day 1, MTD 0.8 mg/kg combined, n=7, value (range)): 142.5 (25.0–194.2)^e h
Tmax ([1]; cycle 1 day 1, MTD 0.8 mg/kg combined, n=34, value (range)): 1.0 (0.5–3.0)^d h
Tmax [1, 2]: 1.0 (0.5–1.0) h
tlast [1, 2]: 167.0 (47.3–191.9) h
tlast ([1]; cycle 1 day 1, cohort 1, 0.1 mg/kg, n=1, individual data): 48.6 h
tlast ([1]; cycle 1 day 1, cohort 2, 0.2 mg/kg, n=3, value (range)): 48.4 (25.0–49.0) h
tlast ([1]; cycle 1 day 1, cohort 3, 0.4 mg/kg, n=2, range): 167.8 to 170.2 h
tlast ([1]; cycle 1 day 1, cohort 4, 0.8 mg/kg, n=7, value (range)): 142.5 (25.0–192.0) h
tlast ([1]; cycle 1 day 1, cohort 5, 1.2 mg/kg, n=2, range): 29.3–167.2^b,c h
Tmax [1, 3]: 1.0 (1.0–1.2) h
tlast [1, 3]: 49.0 (48.9–167.4) h
Tmax [1, 4]: 1.0 (0.5–3.0) h
tlast [1, 4]: 118.5 (46.4–194.2) h
Tmax ([1]; cycle 1 day 15, MTD 0.8 mg/kg combined, n=36, value (range)): 1.0 (0.5–1.3)^m h
Tmax ([1]; cycle 1 day 15, solid tumors expansion, 0.8 mg/kg, n=22, value (range)): 1.0 (0.5–1.3)^l h
accumulation after once-weekly administration ([1]; days 1 and 15): no accumulation
concentration at 1 week ([1]; human, blood, intravenous, 0.8 mg/kg): 1.6 nM
AUC(0-t) ([1]; human, plasma, intravenous, 0.1 mg/kg, AUC(0–25), cycle 1 day 1, cohort 1, 0.1 mg/kg, n=1, individual data): 170 ng·h/mL
AUC(0-t) ([1]; human, plasma, intravenous, 0.1 mg/kg, AUC(0–25), cycle 1 day 15, cohort 1, 0.1 mg/kg, n=1, individual data): 175 ng·h/mL
AUC(0-t) ([1]; human, plasma, intravenous, 0.1 mg/kg, AUC(0–tlast), cycle 1 day 1, cohort 1, 0.1 mg/kg, n=1, individual data): 254 ng·h/mL
Cmax ([1]; human, plasma, intravenous, 0.1 mg/kg, cycle 1 day 1, cohort 1, 0.1 mg/kg, n=1, individual data): 32.9 ng/mL
Cmax ([1]; human, plasma, intravenous, 0.1 mg/kg, cycle 1 day 15, cohort 1, 0.1 mg/kg, n=1, individual data): 37.6 ng/mL
Tmax ([1]; human, plasma, intravenous, 0.1 mg/kg, tmax, cycle 1 day 1, cohort 1, 0.1 mg/kg, n=1, individual data): 0.5 h
Tmax ([1]; human, plasma, intravenous, 0.2 mg/kg): 1 h
AUC(0-t) ([1]; human, plasma, intravenous, 0.2 mg/kg, AUC(0–25), cycle 1 day 1, cohort 2, 0.2 mg/kg, n=3, geometric mean (%CV)): 384 ng·h/mL
AUC(0-t) ([1]; human, plasma, intravenous, 0.2 mg/kg, AUC(0–25), cycle 1 day 15, cohort 2, 0.2 mg/kg, n=3, geometric mean (%CV)): 453 ng·h/mL
AUC(0-t) ([1]; human, plasma, intravenous, 0.2 mg/kg, AUC(0–tlast), cycle 1 day 1, cohort 2, 0.2 mg/kg, n=3, geometric mean (%CV)): 472 ng·h/mL
Cmax ([1]; human, plasma, intravenous, 0.2 mg/kg, cycle 1 day 1, cohort 2, 0.2 mg/kg, n=3, geometric mean (%CV)): 79.8 ng/mL
Cmax ([1]; human, plasma, intravenous, 0.2 mg/kg, cycle 1 day 15, cohort 2, 0.2 mg/kg, n=3, geometric mean (%CV)): 89.4 ng/mL
Tmax ([1]; human, plasma, intravenous, 0.2 mg/kg, tmax, cycle 1 day 1, cohort 2, 0.2 mg/kg, n=3, value (range)): 1.1 h
Tmax ([1]; human, plasma, intravenous, 0.4 mg/kg): 1 h
AUC(0-t) ([1]; human, plasma, intravenous, 0.4 mg/kg, AUC(0–25), cycle 1 day 1, cohort 3, 0.4 mg/kg, n=2, range): 348 to 556 ng·h/mL
AUC(0-t) ([1]; human, plasma, intravenous, 0.4 mg/kg, AUC(0–25), cycle 1 day 1, diabetic expansion, 0.4 mg/kg, n=6, geometric mean (%CV)): 607 ng·h/mL
AUC(0-t) ([1]; human, plasma, intravenous, 0.4 mg/kg, AUC(0–25), cycle 1 day 15, cohort 3, 0.4 mg/kg, n=2, range): 324 to 803 ng·h/mL
AUC(0-t) ([1]; human, plasma, intravenous, 0.4 mg/kg, AUC(0–25), cycle 1 day 15, diabetic expansion, 0.4 mg/kg, n=6, geometric mean (%CV)): 687 ng·h/mL
AUC(0-t) ([1]; human, plasma, intravenous, 0.4 mg/kg, AUC(0–tlast), cycle 1 day 1, cohort 3, 0.4 mg/kg, n=2, range): 722 to 1450 ng·h/mL
AUC(0-t) ([1]; human, plasma, intravenous, 0.4 mg/kg, AUC(0–tlast), cycle 1 day 1, diabetic expansion, 0.4 mg/kg, n=6, geometric mean (%CV)): 1070 ng·h/mL
Cmax ([1]; human, plasma, intravenous, 0.4 mg/kg, cycle 1 day 1, cohort 3, 0.4 mg/kg, n=2, range): 143 to 144 ng/mL
Cmax ([1]; human, plasma, intravenous, 0.4 mg/kg, cycle 1 day 1, diabetic expansion, 0.4 mg/kg, n=6, geometric mean (%CV)): 138 ng/mL
